The test system of one data set is microorganisms. The data set can be described thus: Microbiological studies (biocidal activity). As to conditions: no details given.
Data set [1] in a line: Stability of aqueous solutions of the chlorinated ureas. Type of data set: physicochemical.

As to `NC(=O)NCl` [N-chlorourea], the biocidal activity entry in the data set on microorganisms is “potent biocides”.

For `CNC(=O)N(C)Cl` [N-chloro-N,N′-dimethylurea], the “stability compared with N-chlorourea” value in data set [1] is given as “significantly more stable than N-chlorourea”. The stability of solution entry is reported as “not stable” in data set [1] (basic solutions (pH 12 and higher, flow cell without membrane)); “significantly more stable” in data set [1] (neutral or acidic environment). Besides, the biocidal activity result with microorganisms is listed as “potent biocides”.

The values are drawn from patent US20140018432A1, “ELECTROCHEMICAL GENERATION OF CHLORINATED UREA DERIVATIVES” (Hercules Incorporated, priority 2012, published 2014).
